What is called mortality is the percentage killed.

Assay type in all cases: in vivo
Assay [1] deals with Cowpea Aphid (Aphis craccivora). Briefly: Cowpea aphid spray test on potted cowpea plants. The settings on record: 72 h, read-out: mortality in comparison with untreated controls. As to the method: B.4 Cowpea Aphid (Aphis craccivora)
(§1) The active compound is dissolved at the desired concentration in a mixture of 1:1 (vol:vol) distilled water:acetone. Surfactant (Alkamuls® EL 620) is added at a rate of 0.1% (vol/vol). The test solution is prepared at the day of use.
Potted cowpea plants are colonized with approximately 50-100 aphids of various stages by manually transferring a leaf tissue cut from infested plant 24 hours before application. Plants are sprayed after the pest population has been recorded. Treated plants are maintained on light carts at about 28° C. Percent mortality is assessed after 72 hours.

For assay [2], the system named is Orchid Thrips (dichromothrips corbetti). Briefly: Orchid thrips floral-immersion test. The settings on record: 72 h, read-out: mortality in comparison with untreated controls. The method, then:
B.6 Orchid Thrips (dichromothrips corbetti)
Dichromothrips corbetti adults used for bioassay are obtained from a colony maintained continuously under laboratory conditions. For testing purposes, the test compound is diluted in a 1:1 mixture of acetone:water (vol:vol), plus 0.01% vol/vol Alkamuls® EL 620 surfactant.
Thrips potency of each compound is evaluated by using a floral-immersion technique. Plastic petri dishes are used as test arenas. All petals of individual, intact orchid flowers are dipped into treatment solution and allowed to dry. Treated flowers are placed into individual petri dishes along with about 20 adult thrips. The petri dishes are then covered with lids. All test arenas are held under continuous light and a temperature of about 28° C. for duration of the assay. After 3 days, the numbers of live thrips are counted on each flower, and along inner walls of each petri dish. The percent mortality is recorded 72 hours after treatment.

In assay [3] the test system is green peach aphid (Myzus persicae). The assay can be described thus: Green peach aphid systemic test, artificial diet in 96-well microtiter plates. Particulars: 72 h, read-out: mortality in comparison with untreated controls. The text has this:
B.1 Green Peach Aphid (Myzus persicae)
For evaluating control of green peach aphid (Myzus persicae) through systemic means, the test unit consists of 96-well-microtiter plates containing liquid artificial diet under an artificial membrane.
The compounds are formulated using a solution containing 75% v/v water and 25% v/v DMSO. Different concentrations of formulated compounds are pipetted into the aphid diet, using a custom built pipetter, at two replications.
After application, 5-8 adult aphids are placed on the artificial membrane inside the microtiter plate wells. The aphids are then allowed to suck on the treated aphid diet and incubated at about 23+1° C. and about 50+5% relative humidity for 3 days. Aphid mortality and fecundity is then visually assessed.

Assay [4] has as its system Green Soldier Stink Bug (Nezara viridula). The assay can be described thus: Green soldier stink bug spray test on soybean pods. The settings on record: 120 h, sprayed soybean pods, 3rd instar, 5 days, read-out: mortality in comparison with untreated controls. The method, then:
B.10 Green Soldier Stink Bug (Nezara viridula)
The active compound is dissolved at the desired concentration in a mixture of 1:1 (vol:vol) distilled water:aceteone. Surfactant (Kinetic HV) is added at a rate of 0.01% (vol/vol). The test solution is prepared at the day of use.
Soybean pods were placed in microwavable plastic cups lined with moist filter paper and inoculated with ten 3rd instar N. viridula. Using a hand atomizer, approximately 2 ml solution is sprayed into each cup. Treated cups were kept at about 28-29° C. and relative humidity of about 50-60%. Percent mortality was recorded after 5 days.

The subject of assay [5] is Silverleaf Whitefly (bemisia argentifolii). The assay can be described thus: Silverleaf whitefly spray test on cotton plants. The settings on record: 72 h, read-out: mortality in comparison with untreated controls. The text has this: B.5 Silverleaf Whitefly (bemisia argentifolii)
The active compounds are formulated in cyclohexanone as a 10,000 ppm solution supplied in tubes. The tubes are inserted into an automated electrostatic sprayer equipped with an atomizing nozzle and they serve as stock solutions for which lower dilutions are made in 50% acetone:50% water (v/v). A nonionic surfactant (Kinetic®) is included in the solution at a volume of 0.01% (v/v).
Cotton plants at the cotyledon stage (one plant per pot) are sprayed by an automated electrostatic plant sprayer equipped with an atomizing spray nozzle. The plants are dried in the sprayer fume hood and then removed from the sprayer. Each pot is placed into a plastic cup and about 10 to 12 whitefly adults (approximately 3-5 days old) are introduced. The insects are collected using an aspirator and a nontoxic Tygon® tubing connected to a barrier pipette tip. The tip, containing the collected insects, is then gently inserted into the soil containing the treated plant, allowing insects to crawl out of the tip to reach the foliage for feeding. Cups are covered with a reusable screened lid. […] Mortality is assessed 3 days after treatment, compared to untreated control plants.

For assay [6], the system named is vetch aphid (Megoura viciae). Briefly: Vetch aphid contact/systemic test on broad bean leaf disks. The settings on record: foliar, 120 h, read-out: mortality in comparison with untreated controls. As to the method: B.2 Vetch Aphid (Megoura viciae)
For evaluating control of vetch aphid (Megoura viciae) through contact or systemic means the test unit consisted of 24-well-microtiter plates containing broad bean leaf disks.
The compounds were formulated using a solution containing 75% v/v water and 25% v/v DMSO. Different concentrations of formulated compounds were sprayed onto the leaf disks at 2.5 μl, using a custom built micro atomizer, at two replications.
After application, the leaf disks were air-dried and 5-8 adult aphids were placed on the leaf disks inside the microtiter plate wells. The aphids were then allowed to suck on the treated leaf disks and were incubated at about 23±1° C. and about 50±5% relative humidity for 5 days. Aphid mortality and fecundity was then visually assessed.

The test system of assay [7] is Cotton aphid (Aphis gossypii). Briefly: Cotton aphid spray test on potted plants. Particulars: 72 h, read-out: mortality in comparison with untreated controls. The method, then: B.3 Cotton aphid (Aphis gossypii)
as §1
Potted cowpea plants were colonized with approximately 50-100 aphids of various stages by manually transferring a leaf tissue cut from infested plant 24 hours before application. Plants were sprayed after the pest population has been recorded. Treated plants are maintained on light carts at about 28° C. Percent mortality was assessed after 72 hours.

Assay [8] concerns Rice Brown Plant Hopper (Nilaparvata lugens). Briefly: Rice brown plant hopper spray test on rice seedlings. The settings on record: 72 h, read-out: mortality in comparison with untreated controls. As to the method:
B.8 Rice Brown Plant Hopper (Nilaparvata lugens)
Rice seedlings are cleaned and washed 24 hours before spraying. The active compounds is formulated in 50:50 acetone:water (vol:vol) and 0.1% vol/vol surfactant (EL 620) was added. Potted rice seedlings are sprayed with 5 ml test solution, air dried, placed in cages and inoculated with 10 adults. Treated rice plants are kept at about 28-29° C. and relative humidity of about 50-60%. Percent mortality is recorded after 72 hours.

Assay [9] relates to Rice Green Leafhopper (Nephotettix virescens). Briefly: Rice green leafhopper spray test on rice seedlings. Particulars: 72 h, read-out: mortality in comparison with untreated controls. As to the method: B.7 Rice Green Leafhopper (Nephotettix virescens)
Rice seedlings are cleaned and washed 24 hours before spraying. The active compounds are formulated in 50:50 acetone:water (vol:vol), and 0.1% vol/vol surfactant (EL 620) is added. Potted rice seedlings are sprayed with 5 ml test solution, air dried, placed in cages and inoculated with 10 adults. Treated rice plants are kept at about 28-29° C. and relative humidity of about 50-60%. Percent mortality is recorded after 72 hours.

For assay [10], the system named is Diamond Back Moth (Plutella xylostella). The assay can be described thus: Diamond back moth cabbage leaf dip test. Particulars: foliar, 72 h, read-out: mortality in comparison with untreated controls. The method, then: B.9 Diamond Back Moth (Plutella xylostella)
The active compound is dissolved at the desired concentration in a mixture of 1:1 (vol:vol) distilled water:aceteone. Surfactant (Alkamuls® EL 620) is added at a rate of 0.1% (vol/vol). The test solution is prepared at the day of use.
Leaves of cabbage were dipped in test solution and air-dried. Treated leaves were placed in petri dish eslined with moist filter paper and inoculated with ten 3rd instar larvae. Mortality was recorded 72 hours after treatment. Feeding damages were also recorded using a scale of 0-100%.

Turning to `N#CCC(=O)/N=c1\ccccn1Cc1ccc(Cl)nc1` [I.A-1], the mortality at 500 ppm is no less than 75% in [1]; no less than 75% in assay [2]; greater than 75% in assay [4]; no less than 75% in [5]; greater than 75% in assay [7]; no less than 75% in [8]. Besides, the mortality at 500 ppm in assay [9] is no less than 75%. The mortality at 2500 ppm in assay [3] and in assay [6] was no less than 75% each time.
`N#CC1(C(=O)/N=c2\ccccn2Cc2ccc(Cl)nc2)CC1` [I.B-1]: the mortality at 500 ppm in assay [1] is no less than 75%; in assay [10], greater than 75%; in assay [2] it was no less than 75%; in [8], no less than 75%; in assay [9], no less than 75%. In addition, the mortality at 2500 ppm in assay [3] and in assay [6] was no less than 75% throughout.

Values taken from patent publication US10206397B2, “N-acylimino heterocyclic compounds” (BASF SE, priority 2013, dated 2019).
